Assay results reported in patent publication US9567318B2, “Substituted pyrimidine compounds and uses thereof” (Memorial Sloan-Kettering Cancer Center, priority 2009, dated 2017).

What was measured:
[1] = tested on: PBLs, CCD18Co and MRC-5 normal cells; assay: Cytotoxicity in normal cells; type: cell-based
Procedure: FIG. 14. YK5 has a higher affinity for tumor Hsp70s and selectively kills cancer cells. (a-c) Cells were treated with the indicated concentrations of inhibitors for the times presented, and metabolically viable cells by Alamar blue uptake as described in Methods (a). Molecular markers of apoptosis (PARP and caspase-3 cleavage) were analyzed in cells treated for 24 h with indicated concentrations of inhibitors, by western blotting (b, c). Morphology of cells treated for 24 h with vehicle or the indicated inhibitors was analyzed by light microscopy (c). […]
Because Hsp70 assists in house-keeping functions of normal cells, such as folding of newly synthesized polypeptides, refolding of misfolded proteins, and translocation of proteins through biological membranes, it remains unclear whether pharmacologic interventions which target both Hsp70 and Hsc70 isoforms, such as YK5, are non-toxic to these cells. To address this matter, the cytotoxic effect of YK5 in a panel of normal cells was evaluated, namely peripheral blood leukocytes (PBLs) obtained from healthy blood donors, and cultured normal fibroblasts, such as the colon cells CCD18Co and the lung MRC-5 (FIG. 14a-c). […]
Growth Inhibition Assay. Antiproliferative effects of inhibitors were evaluated using the dye Alamar blue. […]

[2] = biological target: T1, Human Hsc70 (Homo sapiens, UniProt P11142); assay: Hsc70 ATPase activity; type: biochemical; conditions: 100 μM, Hsc70 with co-chaperones, 30° C.
T1 construct: made in house
Procedure: FIG. 6. YK5 inhibits core biochemical functions of Hsp70s and disrupts the Hsp90/Hsp70 interaction. a) Refolding of denatured luciferase by Hsc70 and DJA2 at 30° C. was measured for the indicated times in the presence of YK5 (100 μM) or vehicle (left), or at 60 min in the presence of indicated concentrations of YK5 (right). b) Hsc70 ATPase rates were measured for reactions at 30° C. with the indicated combinations of Hsc70 and co-chaperones in the presence of vehicle (DMSO) or YK5 (100 μM). ADP production was monitored by thin layer chromatography separation of radiolabeled ADP from ATP and phosphorimaging analysis (lower). […] Proteins isolated with anti-Hsp90 and Hsp70s antibodies (IP: Hsp90 or Hsp70), or present in the cell extract (Lysate) were analyzed by WB. […] Proteins were applied to a native gel and analyzed by immunoblotting. […]
Hsc70 ATPase Activity and Luciferase Refolding. Human Hsc70, DJA1/DNAJA1, DJA2/DNAJA2 and Hsp110/Hsp105/HSPH1 were purified and analyzed. […] Samples at time points were terminated with 37.5 mM EDTA and analyzed by thin layer chromatography on polyethylene-imine cellulose (Mallinckrodt Baker) developed in 0.5 M LiCl and 0.5 M formic acid. The ADP produced was determined by image phosphor quantitation and the linear enzymatic rates (Vmax) were calculated by regression analysis. […]

T1 sequence (P11142 whole entry): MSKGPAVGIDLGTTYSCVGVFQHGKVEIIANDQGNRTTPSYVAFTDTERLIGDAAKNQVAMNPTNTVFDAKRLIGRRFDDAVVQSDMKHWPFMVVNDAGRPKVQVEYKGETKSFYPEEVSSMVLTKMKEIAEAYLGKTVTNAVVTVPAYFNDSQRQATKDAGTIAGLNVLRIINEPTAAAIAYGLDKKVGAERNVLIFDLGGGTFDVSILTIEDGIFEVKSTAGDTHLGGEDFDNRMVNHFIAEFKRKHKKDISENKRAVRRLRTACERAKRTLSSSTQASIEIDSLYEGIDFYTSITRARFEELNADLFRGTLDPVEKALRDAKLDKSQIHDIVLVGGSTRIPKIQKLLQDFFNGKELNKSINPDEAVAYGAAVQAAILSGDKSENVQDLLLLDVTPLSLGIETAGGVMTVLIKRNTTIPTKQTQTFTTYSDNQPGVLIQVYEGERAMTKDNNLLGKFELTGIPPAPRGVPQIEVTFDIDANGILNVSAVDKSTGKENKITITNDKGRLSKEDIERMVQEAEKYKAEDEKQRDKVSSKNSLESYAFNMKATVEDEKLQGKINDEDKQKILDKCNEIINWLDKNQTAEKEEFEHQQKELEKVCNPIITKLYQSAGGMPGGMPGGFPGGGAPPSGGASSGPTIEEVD

SMILES: C=CC(=O)Nc1cc(N)nc(Sc2c(OC)nc(N3CCN(C)CC3)nc2OC)n1 [YK5, N-(6-amino-2-(4,6-dimethoxy-2-(4-methylpiperazin-1-yl)pyrimidin-5-ylthio)pyrimidin-4-yl)acrylamide]
- cell death in normal cells [1]: minimal
- stimulated ATPase rate of Hsc70 [2]: partially inhibited the stimulated ATPase rate of Hsc70
